Data published in US10960084B2, “Modulation of fluid intake” (California Institute of Technology, priority 2018, dated 2021).

What was measured:
SFO^nNOS neurons = experiment: Salt/Mannitol loading with fiber photometry of SFO^nNOS/MnPO^nNOS neurons and drinking; format: in vivo, mice; details: fiber photometry; for activity of SFO^nNOS neurons after intraperitoneal injection: 2 M solution i.p.
Protocol: Salt/Mannitol Loading Experiments: 150 μL/300 μL of 2 M NaCl or 300 μL of 2 M Mannitol was injected intraperitoneally at the end of the acclimatization period. For FIGS. 1P-T and FIGS. 7P-S, CNO or vehicle (water) was injected 10 min prior to NaCl/Mannitol injection. We measured bulk fluorescence signals using fiber photometry as previously described^[26]. Briefly, 490 nm and 405 nm LEDs ([…] and […]) were collimated and delivered to the brain. The light intensity was kept less than 100 μW during all recordings. The fluorescence signal was then focused onto a femtowatt photoreceiver (Newport, Model 2151). The modulation and demodulation were done with an RP2.1 real time processor (Tucker-Davis Technologies) running custom software. The licks from the lickometer were simultaneously recorded as real-time TTL signals to the RP2.1. Fluorescence changes were analyzed using custom MATLAB (MathWorks) code as described previously^[26]. Data were extracted and subjected to a low pass filter at 1.8 Hz. A linear function was used to scale up the 405 nm channel signal to the 490 nm channel signal to get the fitted 405 nm signal. The resultant ΔF/F was calculated as (raw 490 nm signal-fitted 405 nm signal)/(fitted 405 nm signal). For brief access tests, the Area Under Curve (ΣΔFduring) was quantified by integrating the fluorescence signals during the bout. For all bouts, the mean fluorescence for 30 s prior to the first lick was calculated and subtracted from the entire session. ΔF changes (ΔFpost-ΔFpre) were calculated by subtracting the mean fluorescence signal during the 2-s period before the first lick from the mean signal during the 2-s at 1 min after the bout. For displaying traces, the fluorescence data was time-binned by a factor of 2.5 times the sampling frequency and down-sampled to 1 Hz. For long-term tests, the Area Under Curve was calculated for 2.5 min after the start of the bout. […] For […]), the first bout at the start of the session and the last bout within 10 min of access were used. The AUC for the PSTHs were calculated during the first or the last 15 seconds.

MnPO^GLP1r neurons = experiment: Whole-cell recording from MnPO^GLP1r neurons with Exendin-4; format: cell-based, mice; details: brain slice preparation
Description: Procedures for preparation of acute brain slices and recordings with optogenetic stimulations were similar to those described previously^[10],[36]. After decapitation, the brain was removed and immersed in ice-cold solution. Coronal slices ([…]) were cut using a vibratome (VT-1200s, Leica) and moved into HEPES-holding solution (NaCl 92, KCl 2.5, NaH2PO4 1.2, NaHCO3 30, HEPES 20, glucose 25, Na-ascorbate 5, Thiourea 2, Na14 pyruvate 3, MgSO4 2, CaCl2 2, pH 7.35). The slices were allowed to recover at 33° C. for 30 min and then held at room temperature ([…]) until use.
While recording, slices were perfused continuously (˜2 mL/min) with artificial cerebrospinal fluid (ACSF-NaCl 124, KCl2.5, NaH2PO4 1.2, NaHCO3 24, glucose 25, MgSO4 1, CaCl2 2) at 25° C. Neurons were visualized and targeted using an upright IR19 DIC microscope (BX51WI, Olympus). […] In order to confirm the PSCs recorded were GABAergic, picrotoxin (150 μM) was applied through the bath in part of the experiments. […] CNO (˜6 μM) was applied by a puff (30 s) from another glass pipette placed ˜50 μm from the recorded cell.

MnPO = experiment: Intra-cranial injection of Exendin-4 into the MnPO, water intake; format: in vivo, mice; details: 100 ng into the MnPO vs vehicle (ACSF)
Protocol: 100 ng of Exendin-4 (Sigma Aldrich) dissolved in 1 μL of ACSF was delivered by a custom-made cannula and tubing (PlasticsOne) connected to a Hamilton syringe driven by a pump (NewEra PumpSystems) at 100 nL/min into the MnPO of water deprived animals under head-fixed conditions. Two minutes after infusion, freely-moving animals were given access to water for the next 45 minutes. The cannula position was verified by infusing Exendin-4-FAM (Anaspec) conjugate before euthanasia. ELISA

Row | Molecule | activity of SFO^nNOS neurons after intraperitoneal injection (SFO^nNOS neurons) | activity of MnPO^nNOS neurons after intraperitoneal injection (SFO^nNOS neurons; 2 M, 300 μl i.p., water-satiated animal) | firing frequency of MnPO^GLP1r neurons (MnPO^GLP1r neurons) | resting membrane potential of MnPO^GLP1r neurons (MnPO^GLP1r neurons) | water intake after water deprivation (MnPO)
1 | [Cl-].[Na+] [NaCl] | robustly activated | robustly activated | – | – | –
2 | OC[C@@H](O)[C@@H](O)[C@H](O)[C@H](O)CO [Mannitol] | robustly activated | – | – | – | –
3 | Exendin-4 | – | – | no effect on the firing frequency | small decrease | no effect on water intake
